Test results as given in patent US20200017496A1 (priority 2017, published 2020).
Read-outs that look alike come from different tables or passages of the source.

How the values were obtained:
[1] = test system: Escherichia coli (ECO) isolates; assay: MIC of compounds alone and combined with antibacterials, broth microdilution (CLSI); format: cell-based; settings: Escherichia coli
How it was run: (§1)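 Log-phase isolates at final 5·10^5 CFU/mL in cation-adjusted Mueller-Hinton broth, incubated 16-20 h at 35° C in ambient air. MIC read visually as lowest concentration preventing growth, for compound alone and for antibacterial at each compound concentration.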

[2] = test system: Morganella morganii (MMO) isolates; assay: as above; format: cell-based
How it was run: as §1

## C=CC1=C(C(=O)O)N2C(=O)[C@@H](NC(=O)/C(=N\OCC(=O)O)c3csc(N)n3)[C@H]2SC1 [FIX, Cefixime]
[1]; strain ECO 180070 (TEM-1, CTX-M-15), ATB alone, read-out: MIC
  MIC: 128 µg/mL
[1]; strain ECO 190314 (CTX-M-1), ATB alone
  MIC: 16 µg/mL
[1]; strain ECO 190317 (TEM-1, SHV-12, CTX-M-15, OXA-1), ATB alone, read-out: MIC
  MIC: > 128 µg/mL
[1]; strain ECO 190317 (TEM-1, SHV-12, CTX-M-15, OXA-1), CLA @ 4 μg/ml+ ATB
  MIC: 0.5 µg/mL
[1]; strain ECO 190457 (CTX-M-15, OXA-1), ATB alone, read-out: MIC
  MIC: 128 µg/mL
[1]; strain ECO 190457 (CTX-M-15, OXA-1), CLA @ 4 μg/ml+ ATB
  MIC: 0.5 µg/mL
[1]; strain ECO 190549 (CTX-M-1), ATB alone
  MIC: 16 µg/mL
[1]; strain ECO 190549 (CTX-M-1), CLA @ 4 μg/ml+ ATB
  MIC: 0.5 µg/mL
[1]; strain ECO 200159 (TEM-1, CTX-M-14), ATB alone
  MIC: 8 µg/mL
[1]; strain ECO 200159 (TEM-1, CTX-M-14), CLA @ 4 μg/ml+ ATB
  MIC: ≤ 0.25 µg/mL
[1]; strain ECO 200259 (CTX-M-14), ATB alone
  MIC: 8 µg/mL
[1]; strain ECO 200259 (CTX-M-14), CLA @ 4 μg/ml+ ATB
  MIC: ≤ 0.25 µg/mL
[1]; strain ECO 200344 (CTX-M-1), CLA @ 4 μg/ml+ ATB
  MIC: 0.5 µg/mL
[1]; strain ECO 260096 (CTX-M-132), ATB alone, read-out: MIC
  MIC: > 128 µg/mL
[1]; strain ECO 260096 (CTX-M-132), CLA @ 4 μg/ml+ ATB
  MIC: 1 µg/mL
[1]; strain ECO 260304 (CTX-M-15), CLA @ 4 μg/ml+ ATB
  MIC: 0.5 µg/mL
[1]; strain ECO 260508 (TEM-1, CTX-M-15, OXA-1), ATB alone, read-out: MIC
  MIC: > 128 µg/mL
[1]; strain ECO 260508 (TEM-1, CTX-M-15, OXA-1), CLA @ 4 μg/ml+ ATB
  MIC: 0.5 µg/mL
[1]; strain ECO RGN238 (OXA-1), ATB alone
  MIC: ≤ 0.25 µg/mL
[1]; strain ECO RGN238 (OXA-1), CLA @ 4 μg/ml+ ATB
  MIC: ≤ 0.25 µg/mL
[1]; strain ECO UFR15 (TEM-1, OXA-48), ATB alone
  MIC: 1 µg/mL
[1]; strain ECO UFR15 (TEM-1, OXA-48), CLA @ 4 μg/ml+ ATB
  MIC: 1 µg/mL
[1]; strain ECO UFR16 (TEM-1, CTX-M-15, OXA-1, OXA-48), ATB alone, read-out: MIC
  MIC: > 128 µg/mL
[1]; strain ECO UFR16 (TEM-1, CTX-M-15, OXA-1, OXA-48), CLA @ 4 μg/ml+ ATB
  MIC: 4 µg/mL
[1]; strain ECO UFR17 (TEM-1, CTX-M-15, CMY-2, OXA-1, OXA-181), ATB alone, read-out: MIC
  MIC: > 128 µg/mL
[1]; strain ECO UFR17 (TEM-1, CTX-M-15, CMY-2, OXA-1, OXA-181), CLA @ 4 μg/ml+ ATB, read-out: MIC
  MIC: > 128 µg/mL
[1]; strain ECO UFR18 (CTX-M-15, OXA-204), ATB alone, read-out: MIC
  MIC: > 128 µg/mL
[1]; strain ECO UFR18 (CTX-M-15, OXA-204), CLA @ 4 μg/ml+ ATB, read-out: MIC
  MIC: > 128 µg/mL
[1]; strain ECO UFR19 (CTX-M-15, CMY-2, OXA-1, OXA-204), ATB alone, read-out: MIC
  MIC: > 128 µg/mL
[1]; strain ECO UFR19 (CTX-M-15, CMY-2, OXA-1, OXA-204), CLA @ 4 μg/ml+ ATB, read-out: MIC
  MIC: > 128 µg/mL
[1]; strain ECO UFR20 (SHV-1, CTX-M-15, OXA-1, OXA-232), ATB alone
  MIC: 512 µg/mL
[1]; strain ECO UFR20 (SHV-1, CTX-M-15, OXA-1, OXA-232), CLA @ 4 μg/ml+ ATB, read-out: MIC
  MIC: > 128 µg/mL
[1]; strain ECO UFR61O (TEM-1, KPC-2), CLA @ 4 μg/ml+ ATB, read-out: MIC
  MIC: 32 µg/mL
[1]; strain ECO UFR62 (TEM-1, CTX-M-9, KPC-2), ATB alone, read-out: MIC
  MIC: 128 µg/mL
[1]; strain ECO UFR62 (TEM-1, CTX-M-9, KPC-2), CLA @ 4 μg/ml+ ATB, read-out: MIC
  MIC: 32 µg/mL
[1]; strain ECO UFR74 (SHV-1, DHA-1), ATB alone, read-out: MIC
  MIC: > 128 µg/mL
[1]; strain ECO UFR74 (SHV-1, DHA-1), CLA @ 4 μg/ml+ ATB, read-out: MIC
  MIC: > 128 µg/mL
[1]; strain ECO UFR86 (ompC-, ompF-), ATB alone, read-out: MIC
  MIC: 2 µg/mL
[1]; strain ECO UFR86 (ompC-, ompF-), CLA @ 4 μg/ml+ ATB, read-out: MIC
  MIC: 2 µg/mL
[1]; strain ECO UFR174 (TEM-1, KPC-2, OXA-1), ATB alone
  MIC: 8 µg/mL
[1]; strain ECO UFR175 (TEM-1, KPC-2, OXA-9), ATB alone
  MIC: 64 µg/mL
[1]; strain ECO UFR175 (TEM-1, KPC-2, OXA-9), CLA @ 4 μg/ml+ ATB
  MIC: 16 µg/mL
[1]; strain ECO UFR176 (KPC-3, OXA-9*), ATB alone
  MIC: 64 µg/mL
[1]; strain ECO UFR184 (CTX-M-15, CMY-4, OXA-1, OXA-204), ATB alone, read-out: MIC
  MIC: > 128 µg/mL
[1]; strain ECO UFR184 (CTX-M-15, CMY-4, OXA-1, OXA-204), CLA @ 4 μg/ml+ ATB, read-out: MIC
  MIC: > 128 µg/mL
[1]; strain ECO UFR185 (OXA-48), ATB alone, read-out: MIC
  MIC: > 128 µg/mL
[1]; strain ECO UFR185 (OXA-48), CLA @ 4 μg/ml+ ATB, read-out: MIC
  MIC: > 128 µg/mL
[1]; strain ECO UFR186 (TEM-1, CTX-M-14, OXA-48), CLA @ 4 μg/ml+ ATB
  MIC: 8 µg/mL
[1]; strain ECO UFR189 (TEM-1, CTX-M-15, OXA-48), ATB alone, read-out: MIC
  MIC: > 128 µg/mL
[1]; strain ECO UFR189 (TEM-1, CTX-M-15, OXA-48), CLA @ 4 μg/ml+ ATB
  MIC: 4 µg/mL
[1]; strain ECO UFR190 (CTX-M-24, OXA-48), ATB alone
  MIC: 64 µg/mL
[1]; strain ECO UFR190 (CTX-M-24, OXA-48), CLA @ 4 μg/ml+ ATB
  MIC: 8 µg/mL
[1]; strain ECO UFR191 (TEM-1, CTX-M-24, OXA-48), ATB alone, read-out: MIC
  MIC: > 128 µg/mL
[1]; strain ECO UFR191 (TEM-1, CTX-M-24, OXA-48), CLA @ 4 μg/ml+ ATB
  MIC: 4 µg/mL
[1]; strain ECO UFR207 (CTX-M-15), ATB alone, read-out: MIC
  MIC: > 128 µg/mL
[1]; strain ECO UFR207 (CTX-M-15), CLA @ 4 μg/ml+ ATB
  MIC: 1 µg/mL
[1]; strain ECO UFR208 (SHV-12), ATB alone, read-out: MIC
  MIC: > 128 µg/mL
[1]; strain ECO UFR208 (SHV-12), CLA @ 4 μg/ml+ ATB, read-out: MIC
  MIC: > 128 µg/mL
[1]; strain ECO UFR209 (TEM-1, CTX-M-15), ATB alone, read-out: MIC
  MIC: 1020 µg/mL
[1]; strain ECO UFR209 (TEM-1, CTX-M-15), CLA @ 4 μg/ml+ ATB
  MIC: 1 µg/mL
[1]; strain ECO UFR210 (SHV-12), CLA @ 4 μg/ml+ ATB
  MIC: 0.5 µg/mL
[1]; strain ECO UFR211 (TEM-24), ATB alone, read-out: MIC
  MIC: > 128 µg/mL
[1]; strain ECO UFR212 (CMY-2), ATB alone, read-out: MIC
  MIC: > 128 µg/mL
[1]; strain ECO UFR212 (CMY-2), CLA @ 4 μg/ml+ ATB, read-out: MIC
  MIC: > 128 µg/mL
[1]; strain ECO UFR218 (TEM-1, SHV-1, CTX-M-15), ATB alone, read-out: MIC
  MIC: > 128 µg/mL
[1]; strain ECO UFR218 (TEM-1, SHV-1, CTX-M-15), CLA @ 4 μg/ml+ ATB
  MIC: 1 µg/mL
[2]; MMO 200321, AF1 @ 4 μg/mL
  MIC ATB in combination: 4 µg/mL
[2]; MMO 200321, AF1 @ 8 μg/mL
  MIC ATB in combination: 4 µg/mL
[2]; MMO UFR144, AF1 @ 4 μg/mL
  MIC ATB in combination: 2 µg/mL
[2]; MMO UFR144, AF1 @ 8 μg/mL
  MIC ATB in combination: 2 µg/mL
[2]; MMO UFR240, AF1 @ 4 μg/mL
  MIC ATB in combination: <=0.25 μg/mL
[2]; MMO UFR240, AF1 @ 8 μg/mL
  MIC ATB in combination: <=0.25 μg/mL
[2]; MMO UFR241, AF1 @ 4 μg/mL
  MIC ATB in combination: 2 µg/mL
[2]; MMO UFR241, AF1 @ 8 μg/mL
  MIC ATB in combination: <=0.25 μg/mL
[2]; MMO UFR242, AF1 @ 4 μg/mL
  MIC ATB in combination: 4 µg/mL
[2]; MMO UFR242, AF1 @ 8 μg/mL
  MIC ATB in combination: 2 µg/mL
[2]; MMO UFR243, AF1 @ 4 μg/mL
  MIC ATB in combination: 0.5 µg/mL
[2]; MMO UFR243, AF1 @ 8 μg/mL
  MIC ATB in combination: <=0.25 μg/mL
[2]; MMO UFR244, AF1 @ 4 μg/mL
  MIC ATB in combination: <=0.25 μg/mL
[2]; MMO UFR244, AF1 @ 8 μg/mL
  MIC ATB in combination: <=0.25 μg/mL
[2]; MMO UFR245, AF1 @ 4 μg/mL
  MIC ATB in combination: 2 µg/mL
[2]; MMO UFR245, AF1 @ 8 μg/mL
  MIC ATB in combination: <=0.25 μg/mL
[2]; MMO UFR246, AF1 @ 4 μg/mL
  MIC ATB in combination: 2 µg/mL
[2]; MMO UFR246, AF1 @ 8 μg/mL
  MIC ATB in combination: 1 µg/mL
